In ChEMBL document CHEMBL3244221, “Attempted inhibition of histidine decarboxylase with beta-alkyl analogues of histidine” (J Med Chem, 1977):
The source made the active and inactive calls. The calls are words filed in the database; no cut-off is given here.

Columns and labels:
[1] = target: T1, Histidine decarboxylase (Rattus norvegicus) (UniProt P16453); experiment: Inhibition of histidine decarboxylase in Sprague-Dawley rat stomach using L-histidine-carboxyl-[14C] as substrate at 1 X 10^-4 M after 30 mins by scintillation counting analysis
T1 sequence (whole entry): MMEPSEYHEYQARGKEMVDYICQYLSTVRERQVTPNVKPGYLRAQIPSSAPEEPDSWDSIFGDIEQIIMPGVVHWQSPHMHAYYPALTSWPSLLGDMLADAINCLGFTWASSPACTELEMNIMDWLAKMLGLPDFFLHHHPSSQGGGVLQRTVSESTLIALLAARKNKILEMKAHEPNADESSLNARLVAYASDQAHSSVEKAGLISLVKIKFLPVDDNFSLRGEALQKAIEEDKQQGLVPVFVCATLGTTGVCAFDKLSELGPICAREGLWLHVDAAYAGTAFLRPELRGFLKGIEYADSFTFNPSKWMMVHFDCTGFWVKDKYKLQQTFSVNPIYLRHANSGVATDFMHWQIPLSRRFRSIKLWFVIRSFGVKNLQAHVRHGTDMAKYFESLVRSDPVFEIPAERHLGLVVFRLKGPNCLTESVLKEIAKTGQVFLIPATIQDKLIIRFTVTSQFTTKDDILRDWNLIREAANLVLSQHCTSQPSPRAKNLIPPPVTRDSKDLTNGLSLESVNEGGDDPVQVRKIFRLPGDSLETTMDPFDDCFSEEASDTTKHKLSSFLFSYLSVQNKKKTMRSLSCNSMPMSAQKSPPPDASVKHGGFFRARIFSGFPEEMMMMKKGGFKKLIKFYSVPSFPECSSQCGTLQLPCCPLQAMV

[2] = target: T1, Histidine decarboxylase (Rattus norvegicus); experiment: Inhibition of histidine decarboxylase in Sprague-Dawley rat stomach using L-histidine-carboxyl-[14C] as substrate at 4 X 10^-6 M after 30 mins by scintillation counting analysis relative to control

inhibition [1] | inhibition [2] [%] | Structure (SMILES)
inactive |  | CCC(c1c[nH]cn1)C(N)C(=O)O (mixture of isomers)
inactive | 50 | CCC(c1c[nH]cn1)C(N)C(=O)OC (mixture of isomers)
inactive | 50 | COC(=O)C(N)C(C)c1c[nH]cn1 (mixture of isomers)

Continued, compound first:

Structure (SMILES) | inhibition [1] | inhibition [2] [%]
CC(c1c[nH]cn1)C(N)C(=O)O (configuration not stated) | inactive | 
CCCCCCC(c1c[nH]cn1)C(N)C(=O)O (mixture of isomers) | inactive | 
